{
  "source": "the Kinase Knowledgebase extract (Sharma et al. 2016)",
  "biological_target": "MAPK14 (human) (UniProt Q16539)",
  "sequence (Q16539 whole entry, looked up)": "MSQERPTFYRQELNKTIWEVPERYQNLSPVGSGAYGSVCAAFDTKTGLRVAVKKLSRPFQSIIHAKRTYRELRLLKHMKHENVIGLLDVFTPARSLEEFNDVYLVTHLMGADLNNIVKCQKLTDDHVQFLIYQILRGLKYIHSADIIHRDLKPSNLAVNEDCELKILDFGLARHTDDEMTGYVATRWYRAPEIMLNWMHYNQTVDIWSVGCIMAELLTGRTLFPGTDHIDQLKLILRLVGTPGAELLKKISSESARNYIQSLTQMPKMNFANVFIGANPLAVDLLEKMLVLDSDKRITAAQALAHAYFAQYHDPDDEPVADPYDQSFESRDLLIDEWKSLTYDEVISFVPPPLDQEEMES",
  "test": "Inhibition of MAPK14 Kinase Activity",
  "conditions": "THP.1 monocytic",
  "data": [
    {"smiles": "Cc1cc(OCc2ccc(F)cc2F)c(Br)c(=O)n1-c1cc(CO)ccc1F", "values": [
      {"measurement": "IC50", "value": "1000 to 25000", "unit": "nM"}
    ]},
    {"smiles": "Cc1cc(OCc2ccc(F)cc2F)c(Br)c(=O)n1-c1cc(CO)ccc1Cl", "values": [
      {"measurement": "IC50", "value": "< 1000", "unit": "nM"}
    ]},
    {"smiles": "Cc1cc(OCc2ccc(F)cc2F)c(Br)c(=O)n1Cc1ccccc1C#N", "values": [
      {"measurement": "IC50", "value": "1000 to 25000", "unit": "nM"}
    ]},
    {"smiles": "Cc1cc(OCc2ccc(F)cc2F)c(Br)c(=O)n1-c1cccc(C(=O)NC(C)C)c1", "values": [
      {"measurement": "IC50", "value": "< 1000", "unit": "nM"}
    ]},
    {"smiles": "COCCNC(=O)c1cccc(-n2c(C)cc(OCc3ccc(F)cc3F)c(Br)c2=O)c1", "values": [
      {"measurement": "IC50", "value": "< 1000", "unit": "nM"}
    ]},
    {"smiles": "CCc1c(OCc2ccccc2)ccn(Cc2ccccc2)c1=O", "values": [
      {"measurement": "IC50", "value": "1000 to 25000", "unit": "nM"}
    ]},
    {"smiles": "C=CCNc1c(I)c(C)n(-c2c(F)cccc2F)c(=O)c1Br", "values": [
      {"measurement": "IC50", "value": "1000 to 25000", "unit": "nM"}
    ]},
    {"smiles": "O=c1c(Br)c(NCc2ccc(F)cc2F)ccn1Cc1cccc(F)c1", "values": [
      {"measurement": "IC50", "value": "< 1000", "unit": "nM"}
    ]},
    {"smiles": "NC(=O)c1ccccc1Cn1ccc(OCc2ccccc2)c(Br)c1=O", "values": [
      {"measurement": "IC50", "value": "1000 to 25000", "unit": "nM"}
    ]},
    {"smiles": "Cc1cc(OCc2ccc(F)cc2F)c(Br)c(=O)n1Cc1cnc(C(=O)N2CCN(C)CC2)cn1", "values": [
      {"measurement": "IC50", "value": "< 1000", "unit": "nM"}
    ]},
    {"smiles": "Cc1cc(OCc2ccc(F)cc2F)c(Br)c(=O)n1Cc1ccc(CN(CCO)CCO)cc1", "values": [
      {"measurement": "IC50", "value": "< 1000", "unit": "nM"}
    ]},
    {"smiles": "Cc1cc(OCc2ccc(F)cc2F)c(Br)c(=O)n1Cc1cnc(CO)cn1", "values": [
      {"measurement": "IC50", "value": "< 1000", "unit": "nM"}
    ]},
    {"smiles": "Cc1cc(OCc2ccc(F)cc2F)c(Br)c(=O)n1-c1cccc(CNC(=O)CO)c1", "values": [
      {"measurement": "IC50", "value": "1000 to 25000", "unit": "nM"}
    ]},
    {"smiles": "Cc1cc(OCc2ccc(F)cc2F)c(Br)c(=O)n1Cc1ccc(CN2CCOCC2)cc1", "values": [
      {"measurement": "IC50", "value": "< 1000", "unit": "nM"}
    ]},
    {"smiles": "O=c1c(Br)c(OCc2ccccc2C(F)(F)F)ccn1Cc1ccccc1", "values": [
      {"measurement": "IC50", "value": "25000 to 100000", "unit": "nM"}
    ]},
    {"smiles": "Cc1cc(OCc2ccc(F)cc2F)c(Br)c(=O)n1-c1ccc(C(N)=O)cc1Cl", "values": [
      {"measurement": "IC50", "value": "< 1000", "unit": "nM"}
    ]},
    {"smiles": "CC(C)(C)c1ccc(Cn2ccc(OCc3ccc(F)cc3)c(Br)c2=O)cc1", "values": [
      {"measurement": "IC50", "value": "1000 to 25000", "unit": "nM"}
    ]},
    {"smiles": "Cc1ccc(CN(C)C)cc1-n1c(C)cc(OCc2ccc(F)cc2F)c(Br)c1=O", "values": [
      {"measurement": "IC50", "value": "1000 to 25000", "unit": "nM"}
    ]},
    {"smiles": "Cc1cc(OCc2ccc(F)cc2F)c(Cl)c(=O)n1-c1cccc(C(=O)O)c1", "values": [
      {"measurement": "IC50", "value": "1000 to 25000", "unit": "nM"}
    ]},
    {"smiles": "CCOC(=O)c1cccc(-n2c(C)cc(OCc3ccc(F)cc3F)c(Br)c2=O)c1", "values": [
      {"measurement": "IC50", "value": "< 1000", "unit": "nM"}
    ]},
    {"smiles": "Cc1ccc(CNC(C)C)cc1-n1c(C)cc(OCc2ccc(F)cc2F)c(Br)c1=O", "values": [
      {"measurement": "IC50", "value": "1000 to 25000", "unit": "nM"}
    ]},
    {"smiles": "O=c1cc(OCc2c(Cl)cccc2Cl)ccn1Cc1ccccc1", "values": [
      {"measurement": "IC50", "value": "> 100000", "unit": "nM"}
    ]},
    {"smiles": "Cc1cc(OCc2ccc(F)cc2F)c(Br)c(=O)n1Cc1cccc(CN)c1", "values": [
      {"measurement": "IC50", "value": "< 1000", "unit": "nM"}
    ]},
    {"smiles": "Cc1cc(OCc2cccc(Cl)c2)cc(=O)n1Cc1ccccc1", "values": [
      {"measurement": "IC50", "value": "> 100000", "unit": "nM"}
    ]},
    {"smiles": "Cc1cc(OCc2cccc(Cl)c2)c(Br)c(=O)n1Cc1ccccc1", "values": [
      {"measurement": "IC50", "value": "1000 to 25000", "unit": "nM"}
    ]},
    {"smiles": "Cc1c(C2CO2)c(OCc2ccc(F)cc2F)c(Br)c(=O)n1-c1c(F)cccc1F", "note": "(stereo not drawn)", "values": [
      {"measurement": "IC50", "value": "25000 to 100000", "unit": "nM"}
    ]},
    {"smiles": "Cc1c(C=NO)c(OCc2ccc(F)cc2F)c(Br)c(=O)n1-c1c(F)cccc1F", "values": [
      {"measurement": "IC50", "value": "25000 to 100000", "unit": "nM"}
    ]},
    {"smiles": "N#Cc1ccc(COc2ccn(Cc3cccc(F)c3)c(=O)c2Br)cc1", "values": [
      {"measurement": "IC50", "value": "25000 to 100000", "unit": "nM"}
    ]},
    {"smiles": "Cc1cc(OCc2ccc(F)cc2F)c(Br)c(=O)n1-c1cccc(CNS(C)(=O)=O)c1", "values": [
      {"measurement": "IC50", "value": "1000 to 25000", "unit": "nM"}
    ]},
    {"smiles": "COC(=O)CCn1ccc(OCc2ccccc2)c(Br)c1=O", "values": [
      {"measurement": "IC50", "value": "1000 to 25000", "unit": "nM"}
    ]},
    {"smiles": "N#Cc1ccccc1Cn1ccc(OCc2ccccc2)c(Br)c1=O", "values": [
      {"measurement": "IC50", "value": "1000 to 25000", "unit": "nM"}
    ]},
    {"smiles": "Cc1cnc(Cn2c(C)cc(OCc3ccc(F)cc3F)c(Br)c2=O)cn1", "values": [
      {"measurement": "IC50", "value": "< 1000", "unit": "nM"}
    ]},
    {"smiles": "Cc1ccc(COc2ccn(Cc3ccccc3)c(=O)c2Br)cc1", "values": [
      {"measurement": "IC50", "value": "1000 to 25000", "unit": "nM"}
    ]},
    {"smiles": "O=c1c(Br)c(OCc2ccccc2)ccn1CC1CCCNC1", "note": "(stereo not drawn)", "values": [
      {"measurement": "IC50", "value": "> 100000", "unit": "nM"}
    ]},
    {"smiles": "Cc1cc(OCc2ccc(F)cc2F)c(Br)c(=O)n1-c1c(F)cc(Br)cc1F", "values": [
      {"measurement": "IC50", "value": "< 1000", "unit": "nM"}
    ]},
    {"smiles": "COCCN(C)C(=O)c1cccc(-n2c(C)cc(OCc3ccc(F)cc3F)c(Br)c2=O)c1", "values": [
      {"measurement": "IC50", "value": "1000 to 25000", "unit": "nM"}
    ]},
    {"smiles": "CNC(=O)c1cccc(-n2c(C)cc(OCc3ccc(F)cc3F)c(Br)c2=O)c1", "values": [
      {"measurement": "IC50", "value": "< 1000", "unit": "nM"}
    ]},
    {"smiles": "CC(C)(C)c1ccc(Cn2ccc(OCc3ccc(F)cc3F)c(Br)c2=O)cc1", "values": [
      {"measurement": "IC50", "value": "1000 to 25000", "unit": "nM"}
    ]},
    {"smiles": "O=c1c(Br)c(OCc2ccc(C(F)(F)F)cc2)ccn1Cc1cccc(F)c1", "values": [
      {"measurement": "IC50", "value": "1000 to 25000", "unit": "nM"}
    ]},
    {"smiles": "NCc1ccccc1Cn1ccc(OCc2ccccc2)c(Br)c1=O", "values": [
      {"measurement": "IC50", "value": "1000 to 25000", "unit": "nM"}
    ]},
    {"smiles": "O=c1c(Br)c(OCc2ccccc2)ccn1Cc1ccc(Br)cc1", "values": [
      {"measurement": "IC50", "value": "< 1000", "unit": "nM"}
    ]},
    {"smiles": "Cc1cc(OCc2ccc(F)cc2F)c(Br)c(=O)n1-c1cccc(C(=O)N(C)CCO)c1", "values": [
      {"measurement": "IC50", "value": "1000 to 25000", "unit": "nM"}
    ]},
    {"smiles": "Cc1c(OCc2ccccc2)ccn(Cc2cccc(F)c2)c1=O", "values": [
      {"measurement": "IC50", "value": "1000 to 25000", "unit": "nM"}
    ]}
  ]
}
